Test results from patent US8658591B2, “Multi-LEU peptides and analogues thereof as selective PACE4 inhibitors and effective antiproliferative agents” (priority 2008, dated 2014).

What was measured:
Assay type in all cases: biochemical
[1] = biological target: T1, PC4 (Homo sapiens, UniProt Q6UW60); assay: Enzyme inhibition assay, fluorogenic substrate, PC4
T1 sequence (Q6UW60 114-755): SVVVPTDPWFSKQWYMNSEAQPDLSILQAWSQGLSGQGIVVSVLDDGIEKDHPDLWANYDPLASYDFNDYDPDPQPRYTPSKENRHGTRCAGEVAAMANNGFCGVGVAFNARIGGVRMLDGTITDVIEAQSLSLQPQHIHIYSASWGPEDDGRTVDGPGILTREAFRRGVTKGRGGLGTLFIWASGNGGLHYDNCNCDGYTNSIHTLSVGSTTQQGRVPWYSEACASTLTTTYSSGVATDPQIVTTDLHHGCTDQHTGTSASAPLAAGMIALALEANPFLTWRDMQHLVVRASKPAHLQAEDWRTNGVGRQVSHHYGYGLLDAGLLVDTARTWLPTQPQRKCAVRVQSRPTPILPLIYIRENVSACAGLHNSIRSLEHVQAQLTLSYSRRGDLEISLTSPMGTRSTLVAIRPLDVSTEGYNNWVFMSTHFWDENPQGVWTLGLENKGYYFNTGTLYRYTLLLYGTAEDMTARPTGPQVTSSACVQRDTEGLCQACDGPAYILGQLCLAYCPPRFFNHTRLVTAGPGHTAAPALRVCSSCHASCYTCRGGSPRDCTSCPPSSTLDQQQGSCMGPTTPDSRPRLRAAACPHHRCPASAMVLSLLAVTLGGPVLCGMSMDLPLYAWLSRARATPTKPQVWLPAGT
Method: (§1) Enzyme inhibition assays for furin (FIG. 5D) were performed in 100 mM Hepes pH 7.5, 1 mM CaCl2, 1 mM β-mercaptoethanol, 0.5 μg/μL BSA. Assays for PC2 (FIG. 5E) were performed in 20 mM Bis-Tris pH 5,7, 1 mM CaCl2, 0.1% Brij-30. Assays for PC1/3, PC4, PACE4, PC5/6 and PC7 (FIGS. 5F, G, A, B and C respectively) were performed in 20 mM Bis-Tis pH 6.5, 1 mM CaCl2. All assays were performed with the substrate pyroGlu-Arg-[…]-Lys-Arg-methyl-coumaryl-7-amide (SEQ ID NO: 33) (PyrRTKR-MCA (SEQ ID NO: 34)) (Bachem, CA) at 100 μM for furin, PC1/3, PC4, PACE4 and PC5/6, 200 μM for PC2 and 250 μM for PC7. Assays were carried out at 37° C. for 30-60 min and real-time fluorescence was measured with an excitation wavelength of 370 nm and an emission wavelength of 460 nm using a Gemini XS™ 96-well spectrofluorometer and SoftMaxPro4™ software (Molecular Devices, CA). Inhibitory peptides were added to the enzymes at decreasing concentrations from 100 μM to 50 nM and incubated 5 minutes prior to the addition of substrate.

[2] = biological target: PC5/6 (Homo sapiens, UniProt Q92824); assay: Enzyme inhibition assay, fluorogenic substrate, PC5/6
Method: as §1

[3] = biological target: furin (Homo sapiens, UniProt P09958); assay: Enzyme inhibition assay, fluorogenic substrate, furin
Method: as §1

[4] = biological target: T2, PC2 (Homo sapiens, UniProt P16519); assay: Enzyme inhibition assay, fluorogenic substrate, PC2
T2 sequence (P16519 110-638): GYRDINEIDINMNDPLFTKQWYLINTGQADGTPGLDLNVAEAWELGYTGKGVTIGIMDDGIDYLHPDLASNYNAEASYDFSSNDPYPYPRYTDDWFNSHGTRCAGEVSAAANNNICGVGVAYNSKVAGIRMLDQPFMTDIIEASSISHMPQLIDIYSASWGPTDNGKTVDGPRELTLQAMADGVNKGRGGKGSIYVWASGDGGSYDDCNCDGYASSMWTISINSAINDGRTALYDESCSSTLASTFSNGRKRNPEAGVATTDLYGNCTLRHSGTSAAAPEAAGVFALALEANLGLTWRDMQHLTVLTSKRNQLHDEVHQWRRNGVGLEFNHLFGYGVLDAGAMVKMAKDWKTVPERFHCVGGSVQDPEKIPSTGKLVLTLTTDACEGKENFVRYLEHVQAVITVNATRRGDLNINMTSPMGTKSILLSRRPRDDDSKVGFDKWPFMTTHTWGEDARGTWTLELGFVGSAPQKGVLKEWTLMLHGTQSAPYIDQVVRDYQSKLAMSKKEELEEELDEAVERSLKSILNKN
Method: as §1

PC5/6, sequence (Q92824 115-1860): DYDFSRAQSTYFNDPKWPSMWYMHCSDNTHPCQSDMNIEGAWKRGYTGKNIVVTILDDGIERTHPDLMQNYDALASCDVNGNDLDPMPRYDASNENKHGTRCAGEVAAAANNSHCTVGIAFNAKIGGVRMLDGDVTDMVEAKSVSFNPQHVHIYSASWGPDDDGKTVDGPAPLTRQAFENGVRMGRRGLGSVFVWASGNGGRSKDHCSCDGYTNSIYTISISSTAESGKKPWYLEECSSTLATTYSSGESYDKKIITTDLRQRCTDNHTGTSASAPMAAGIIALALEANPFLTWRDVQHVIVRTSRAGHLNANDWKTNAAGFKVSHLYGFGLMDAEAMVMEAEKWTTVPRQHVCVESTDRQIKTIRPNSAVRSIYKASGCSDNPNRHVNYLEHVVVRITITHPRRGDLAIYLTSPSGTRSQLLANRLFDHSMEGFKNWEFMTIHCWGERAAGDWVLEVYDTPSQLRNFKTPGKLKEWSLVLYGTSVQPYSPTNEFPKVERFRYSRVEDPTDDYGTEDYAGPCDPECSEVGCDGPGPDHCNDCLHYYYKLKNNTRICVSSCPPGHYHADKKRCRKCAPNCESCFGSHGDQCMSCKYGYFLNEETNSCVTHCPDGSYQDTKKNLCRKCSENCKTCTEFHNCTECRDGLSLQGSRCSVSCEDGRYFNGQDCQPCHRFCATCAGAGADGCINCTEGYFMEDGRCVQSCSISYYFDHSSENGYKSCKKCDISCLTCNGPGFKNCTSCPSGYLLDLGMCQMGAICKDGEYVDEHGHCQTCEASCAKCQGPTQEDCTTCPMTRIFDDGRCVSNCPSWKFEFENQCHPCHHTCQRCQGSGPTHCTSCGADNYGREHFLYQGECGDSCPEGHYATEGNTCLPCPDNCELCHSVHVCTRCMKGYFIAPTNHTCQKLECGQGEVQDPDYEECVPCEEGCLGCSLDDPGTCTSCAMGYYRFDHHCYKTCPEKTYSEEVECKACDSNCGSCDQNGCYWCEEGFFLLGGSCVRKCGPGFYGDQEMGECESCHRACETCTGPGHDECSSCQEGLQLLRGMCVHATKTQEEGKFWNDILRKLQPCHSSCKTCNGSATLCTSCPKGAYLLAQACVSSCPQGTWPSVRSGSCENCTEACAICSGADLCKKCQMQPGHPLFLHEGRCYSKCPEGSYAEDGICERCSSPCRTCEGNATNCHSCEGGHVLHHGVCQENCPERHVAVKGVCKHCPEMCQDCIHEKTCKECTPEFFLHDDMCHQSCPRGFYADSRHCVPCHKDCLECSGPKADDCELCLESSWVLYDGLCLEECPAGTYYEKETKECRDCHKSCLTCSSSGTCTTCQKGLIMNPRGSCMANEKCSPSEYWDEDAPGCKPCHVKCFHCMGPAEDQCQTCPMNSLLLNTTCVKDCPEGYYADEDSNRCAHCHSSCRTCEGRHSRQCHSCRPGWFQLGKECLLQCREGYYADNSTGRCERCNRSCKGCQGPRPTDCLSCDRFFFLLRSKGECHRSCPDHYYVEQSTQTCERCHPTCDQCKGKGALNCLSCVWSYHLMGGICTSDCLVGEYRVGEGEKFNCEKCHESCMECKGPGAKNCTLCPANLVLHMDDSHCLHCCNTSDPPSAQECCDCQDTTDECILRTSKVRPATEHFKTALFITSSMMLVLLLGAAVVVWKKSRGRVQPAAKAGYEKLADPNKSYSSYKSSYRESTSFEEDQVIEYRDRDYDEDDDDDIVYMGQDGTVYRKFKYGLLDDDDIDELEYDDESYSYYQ
furin, sequence (P09958 108-794, species assumed): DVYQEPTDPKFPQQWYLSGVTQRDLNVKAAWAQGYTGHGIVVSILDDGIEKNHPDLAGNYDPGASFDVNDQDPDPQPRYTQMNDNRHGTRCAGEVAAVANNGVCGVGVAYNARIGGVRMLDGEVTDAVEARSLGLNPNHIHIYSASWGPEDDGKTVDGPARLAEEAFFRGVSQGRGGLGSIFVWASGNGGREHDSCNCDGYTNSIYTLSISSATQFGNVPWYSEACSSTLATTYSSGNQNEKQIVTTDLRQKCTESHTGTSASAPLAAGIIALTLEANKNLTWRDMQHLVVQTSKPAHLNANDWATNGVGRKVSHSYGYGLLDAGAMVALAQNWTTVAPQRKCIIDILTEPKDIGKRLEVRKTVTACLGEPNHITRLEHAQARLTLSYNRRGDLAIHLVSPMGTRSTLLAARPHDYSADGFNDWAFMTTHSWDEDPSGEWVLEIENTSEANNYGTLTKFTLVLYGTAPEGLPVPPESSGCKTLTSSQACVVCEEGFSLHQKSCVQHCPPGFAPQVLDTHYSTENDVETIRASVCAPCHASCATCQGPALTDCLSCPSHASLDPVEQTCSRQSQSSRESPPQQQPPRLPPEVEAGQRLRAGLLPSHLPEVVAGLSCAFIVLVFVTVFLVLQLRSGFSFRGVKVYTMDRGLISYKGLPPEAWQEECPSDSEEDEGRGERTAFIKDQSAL

RVKR [RVKR—NH2, RVKR-NH2]
poor micromolar inhibitor: inhibition potency on PC4, in words [1] | inhibition potency on PC5/6, in words [2] | inhibition potency on furin, in words [3] | inhibition potency on PC2, in words [4]
